# Measured values from patent publication US20160089343A1 (LSU Health Sciences Center Shreveport, priority 2014, published 2016).
# “Also recorded” adds a separate entry of the source.
# How the values were obtained:
# tumor formation = test: Model of minimal residual disease; type: in vivo
# mTOR pathway markers = test: Phase 2 biomarker exploratory trial in HNSCC patients; type: in vivo, human
# Excerpt: Criteria #1) Biomarker expression in normal tissue should be different from that in high risk tissue. In FIG. 2 we present an analysis of cancer (lanes 5, 6, 11, and 12) and non-cancer (patients with sleep apnea) (lanes 1-4 and 7-10) patient samples. The cancer samples include tumors (T) and histologically tumor-free margins (M). […] Criteria #2) Biomarkers can be detected in small tissue specimens. In our studies we have successfully detected by western blots and even by IHC the various Akt/mTOR markers on samples often as small as 5 mm. Criteria #3) Biomarkers can be expressed in a quantity or pattern that can be correlated with the stage of carcinogenesis.
# HNSCC cell lines = HNSCC cell lines screened for sensitivity to curcumin (cell proliferation); type: cell-based; settings: for sensitivity of a variety of cell lines: spread of sensitivity across cell lines
# [1] = tested on: normal fibroblast cell line CCL110; test: Cell proliferation in the normal fibroblast cell line; type: cell-based; settings: CCL110, in vitro
# [2] = tested on: NFκB and Akt/mTOR pathways in PCI15a cells; test: Modulation of NFκB and Akt/mTOR pathways, PCI15a cells; type: cell-based; settings: 10 μM curcumin
# [3] = tested on: NFκB and Akt/mTOR pathways in SCC40 cells; test: Modulation of NFκB and Akt/mTOR pathways, SCC40 cells; type: cell-based; settings: SCC40, 10 μM curcumin
# [4] = tested on: Akt/mTOR pathway in SCC066 cells; test: Modulation of NFκB and Akt/mTOR pathways, SCC066 cells; type: cell-based; settings: SCC066, 10 μM curcumin, 24 and 48 hours
# [5] = tested on: pNFκB or Akt/mTOR in CCL110 cells; test: Modulation of NFκB and Akt/mTOR pathways, CCL110 normal fibroblasts; type: cell-based; settings: CCL110, 10 μM curcumin, 24 and 48 hours
# [6] = tested on: pAkt and pS6 in SCC40 xenografts; test: pAkt and pS6 in SCC40 xenografts of curcumin-treated mice; type: in vivo; settings: mice with SCC40 xenografts treated with curcumin
# tumor cells = test: Chemoprevention model: pre-treatment before injecting tumor cells, tumor volume; type: in vivo, Balb/c nu/nu mice; settings: from 4 days before tumor cells, about three weeks
# Protocol: Balb/c nu/nu mice were randomized into treatment groups. […] Tumors were measured over approximately three weeks. […] ANOVA analysis. […] This also points to its role as a chemopreventive agent rather than a therapeutic agent.
# [7] = tested on: AKT/mTOR pathway, FGF-2 and MMP-9 in HNSCC cell lines; test: Biomarkers in HNSCC cell lines (earlier work); type: cell-based
# Excerpt: Also, identifying a consistent biomarker that can be validated in chemoprevention trials is critical, as the occurrence of cancer as an end point could take years. […] Acquiring the angiogenic phenotype by premalignant cells is the a critical step in carcinogenesis and FGF-2 is one of the most important angiogenic markers. Oral dysplasias are characterized by deregulations (DNA amplification and homozygous deletion) of multiple components of the FGF signaling network. […] GM-CSF promotes proliferation of endothelial progenitor cells, induces endothelial capillary formation via stimulation of MMP expression and activates JAK2/STAT-3 pathway. IL-17, besides its function as immune marker, is also implicated in stimulating angiogenesis.
# [8] = tested on: TPA-induced tumors on mouse skin; settings: topical 10 μmol curcumin twice weekly; cited from earlier work
# DMBA-induced oral tumors = settings: topical 10 μmol curcumin to cheek pouch 3 times/week for 24 weeks; cited from earlier work
# [9] = tested on: prostate cancer xenograft; settings: p.o. gavage 5 mg/day, 5 days/week for 4 weeks; cited from earlier work
smiles,measurement,setting,value
"CO[C@H]1C[C@@H]2CC[C@@H](C)[C@@](O)(O2)C(=O)C(=O)N2CCCC[C@H]2C(=O)O[C@H]([C@H](C)C[C@@H]2CC[C@@H](OC(=O)C(C)(CO)CO)[C@H](OC)C2)CC(=O)[C@H](C)/C=C(\C)[C@@H](O)[C@@H](OC)C(=O)[C@H](C)C[C@H](C)/C=C/C=C/C=C/1C [CCI-779, temsirolimus]",survival,tumor formation,improve survival
same,tumor formation,tumor formation,inhibit tumor formation
same,mTOR pathway markers in tumors and PBMCs,mTOR pathway markers,modulation of these markers
"CO[C@H]1C[C@@H]2CC[C@@H](C)[C@@](O)(O2)C(=O)C(=O)N2CCCC[C@H]2C(=O)O[C@H]([C@H](C)C[C@@H]2CC[C@@H](OCCO)[C@H](OC)C2)CC(=O)[C@H](C)/C=C(\C)[C@@H](O)[C@@H](OC)C(=O)[C@H](C)C[C@H](C)/C=C/C=C/C=C/1C [RAD001, everolimus]",sensitivity of a variety of cell lines,HNSCC cell lines,wide range of sensitivity
COc1cc(/C=C/C(=O)CC(=O)/C=C/c2ccc(O)c(OC)c2)ccc1O [curcumin],growth inhibitory effect,HNSCC cell lines; all 10 HNSCC cell lines tested to date,growth inhibitory effects
same,effect on cell proliferation,"HNSCC cell lines; all HNSCC cell lines, 10 μM curcumin",inhibition of cell proliferation
same,anti-proliferative effect,"HNSCC cell lines; panel of nine HNSCC cell lines, earlier work",robust anti-proliferative effects
same,sensitivity of a variety of cell lines,HNSCC cell lines,consistently sensitive
same,growth inhibitory effect,"HNSCC cell lines; three HNSCC cell lines (PCI15a, SCC40, SCC066), 10 μM, 48 hours",significant growth inhibitory effects
same,curcumin concentration giving consistent inhibition of cell proliferation,"HNSCC cell lines; variety of HNSCC cell lines, in vitro",less than 10 μM
same,dose required to see effects in normal fibroblasts,[1],20 to 40 µM
same,pNFκB,[2]; 24 and 48 hours,no change
same,pAkt,[2]; 48 hours,down-regulated
same,pS6 downstream of mTOR,[2]; 48 hours,down-regulated
same,Akt/mTOR pathway,[3]; 24 and 48 hours,no change
same,pNFκB,[3]; 48 hours,down-regulation
same,Akt/mTOR pathway,[4],did not show any modulation
same,pNFκB or Akt/mTOR,[5],no decrease
same,pAkt in xenografts,[6],significant decrease
same,pS6 in xenografts,[6],significant decrease
same,tumor volume versus control (vehicle treated),tumor cells; 10 mg curcumin,no significant difference
same,tumor volume versus control (vehicle treated),"tumor cells; 15 mg curcumin, p=0.007, mixed ANOVA",statistically significant difference
same,FGF-2 expression in HNSCC cells,[7]; p<0.001,downregulation; also recorded: significant inhibition
same,AKT/mTOR pathway in HNSCC cell lines,[7]; panel of nine HNSCC cell lines,inhibition
same,MMP-9 in HNSCC cell lines,[7]; panel of nine HNSCC cell lines,downregulation
same,inhibition of the number of tumors per mouse,[8],98%
same,reduction of the number of DMBA-induced oral tumors,DMBA-induced oral tumors,~40%
same,inhibition of growth of prostate cancer xenograft,[9],~50%
